# Assays:
# [1] = system: Enterobacter cloacae; experiment: Antibacterial activity against Enterobacter cloacae assessed as diameter of inhibition zone measured after 24 hrs by agar disc diffusion method; type: functional; also: test concentration or dose not given here
# [2] = system: Proteus vulgaris; experiment: Antibacterial activity against Proteus vulgaris assessed as diameter of inhibition zone measured after 24 hrs by agar disc diffusion method; type: functional; also: test concentration or dose not given here
# [3] = target: Neutrophil collagenase (Homo sapiens, UniProt P22894); experiment: Inhibition of human MMP8 using (7-methoxycoumarin-4-yl)acetyl-Pro-Leu-Gly-Leu-(3-(2,4-dinitrophenyl)-L-2,3-diamino-propionyl)Ala-Arg-NH2 as substrate preincubated for 30 mins followed by substrate addition and measured by fluorescence assay
# Chain of Neutrophil collagenase (P22894 whole entry): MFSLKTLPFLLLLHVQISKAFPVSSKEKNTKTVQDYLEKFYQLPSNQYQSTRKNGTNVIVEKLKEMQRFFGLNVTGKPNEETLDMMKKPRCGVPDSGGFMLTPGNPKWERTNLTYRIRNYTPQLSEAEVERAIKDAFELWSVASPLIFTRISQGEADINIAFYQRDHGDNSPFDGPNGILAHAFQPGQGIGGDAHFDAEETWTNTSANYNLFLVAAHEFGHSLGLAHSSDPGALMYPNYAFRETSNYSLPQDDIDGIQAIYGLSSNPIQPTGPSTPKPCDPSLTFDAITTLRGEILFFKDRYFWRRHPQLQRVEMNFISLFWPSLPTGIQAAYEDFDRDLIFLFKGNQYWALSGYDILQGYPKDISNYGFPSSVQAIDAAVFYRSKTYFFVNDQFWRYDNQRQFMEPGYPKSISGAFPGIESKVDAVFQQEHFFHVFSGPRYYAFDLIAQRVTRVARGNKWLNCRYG
# [4] = target: Collagenase 3 (Homo sapiens, UniProt P45452); experiment: Inhibition of human MMP13 using (7-methoxycoumarin-4-yl)acetyl-Pro-Leu-Gly-Leu-(3-(2,4-dinitrophenyl)-L-2,3-diamino-propionyl)Ala-Arg-NH2 as substrate preincubated for 30 mins followed by substrate addition and measured by fluorescence assay
# [5] = system: Escherichia coli; experiment: Antibacterial activity against Escherichia coli BL21(DE3) assessed as diameter of inhibition zone measured after overnight incubation by agar disc diffusion method; type: functional; also: test concentration or dose not given here
# [6] = system: Escherichia coli; experiment: Antibacterial activity against Escherichia coli D22 measured after 20 hrs by microdilution method; type: functional; conditions: D22, 20 h
# [7] = target: 72 kDa type IV collagenase (Homo sapiens, UniProt P08253); experiment: Inhibition of human MMP2 using (7-methoxycoumarin-4-yl)acetyl-Pro-Leu-Gly-Leu-(3-(2,4-dinitrophenyl)-L-2,3-diamino-propionyl)Ala-Arg-NH2 as substrate preincubated for 30 mins followed by substrate addition and measured by fluorescence assay
# Chain of 72 kDa type IV collagenase (P08253 whole entry, the tested form may be a part): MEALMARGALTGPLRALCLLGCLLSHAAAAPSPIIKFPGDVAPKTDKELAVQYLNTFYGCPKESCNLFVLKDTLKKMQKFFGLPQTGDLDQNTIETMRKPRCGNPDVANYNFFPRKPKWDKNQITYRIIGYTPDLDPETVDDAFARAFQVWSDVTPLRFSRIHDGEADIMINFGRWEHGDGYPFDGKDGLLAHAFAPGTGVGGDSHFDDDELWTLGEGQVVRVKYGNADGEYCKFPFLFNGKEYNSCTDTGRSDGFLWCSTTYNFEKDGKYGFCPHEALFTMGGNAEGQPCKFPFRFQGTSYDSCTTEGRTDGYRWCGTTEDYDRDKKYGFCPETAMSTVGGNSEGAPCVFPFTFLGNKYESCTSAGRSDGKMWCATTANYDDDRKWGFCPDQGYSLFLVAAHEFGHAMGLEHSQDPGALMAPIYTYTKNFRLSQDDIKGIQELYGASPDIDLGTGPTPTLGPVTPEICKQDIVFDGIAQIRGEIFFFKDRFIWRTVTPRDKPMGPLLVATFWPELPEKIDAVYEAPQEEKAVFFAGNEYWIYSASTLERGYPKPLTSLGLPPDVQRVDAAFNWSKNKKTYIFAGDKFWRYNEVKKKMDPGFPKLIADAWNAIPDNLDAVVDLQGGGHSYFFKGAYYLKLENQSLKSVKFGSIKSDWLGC
# [8] = system: Escherichia coli; experiment: Antibacterial activity against Escherichia coli D22 assessed as diameter of inhibition zone measured after overnight incubation by agar disc diffusion method; type: functional; also: test concentration or dose not given here
# [9] = system: Proteus mirabilis; experiment: Antibacterial activity against Proteus mirabilis assessed as diameter of inhibition zone measured after 24 hrs by agar disc diffusion method; type: functional; also: test concentration or dose not given here
# [10] = system: Klebsiella pneumoniae; experiment: Antibacterial activity against Klebsiella pneumoniae assessed as diameter of inhibition zone measured after 24 hrs by agar disc diffusion method; type: functional; also: test concentration or dose not given here
# [11] = system: Pseudomonas aeruginosa; experiment: Antibacterial activity against Pseudomonas aeruginosa assessed as diameter of inhibition zone measured after 24 hrs by agar disc diffusion method; type: functional; also: test concentration or dose not given here
# [12] = system: Citrobacter freundii; experiment: Antibacterial activity against Citrobacter freundii assessed as diameter of inhibition zone measured after 24 hrs by agar disc diffusion method; type: functional; also: test concentration or dose not given here
# [13] = target: Matrix metalloproteinase-9 (Homo sapiens, UniProt P14780); experiment: Inhibition of human MMP9 using (7-methoxycoumarin-4-yl)acetyl-Pro-Leu-Gly-Leu-(3-(2,4-dinitrophenyl)-L-2,3-diamino-propionyl)Ala-Arg-NH2 as substrate preincubated for 30 mins followed by substrate addition and measured by fluorescence assay
# Chain of Matrix metalloproteinase-9 (P14780 whole entry, the tested form may be a part): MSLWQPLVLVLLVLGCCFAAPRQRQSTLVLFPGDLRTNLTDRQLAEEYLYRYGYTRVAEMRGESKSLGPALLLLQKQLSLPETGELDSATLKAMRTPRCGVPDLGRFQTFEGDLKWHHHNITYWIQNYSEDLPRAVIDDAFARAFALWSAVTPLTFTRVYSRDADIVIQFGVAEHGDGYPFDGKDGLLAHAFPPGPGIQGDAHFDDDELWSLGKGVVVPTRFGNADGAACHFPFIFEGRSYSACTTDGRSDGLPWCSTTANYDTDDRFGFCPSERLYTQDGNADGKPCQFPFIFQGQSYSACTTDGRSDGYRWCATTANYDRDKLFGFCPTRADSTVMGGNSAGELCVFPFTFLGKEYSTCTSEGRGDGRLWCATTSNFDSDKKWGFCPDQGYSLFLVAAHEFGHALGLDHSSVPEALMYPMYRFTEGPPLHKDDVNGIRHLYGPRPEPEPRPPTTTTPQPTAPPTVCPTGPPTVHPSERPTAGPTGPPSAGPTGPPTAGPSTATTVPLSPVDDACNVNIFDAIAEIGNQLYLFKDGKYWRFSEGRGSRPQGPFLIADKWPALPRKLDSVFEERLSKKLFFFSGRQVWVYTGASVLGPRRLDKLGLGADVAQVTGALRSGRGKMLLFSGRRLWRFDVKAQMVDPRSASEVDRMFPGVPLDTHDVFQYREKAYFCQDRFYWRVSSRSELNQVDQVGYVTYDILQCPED
# [14] = system: Klebsiella oxytoca; experiment: Antibacterial activity against Klebsiella oxytoca assessed as diameter of inhibition zone measured after 24 hrs by agar disc diffusion method; type: functional; also: test concentration or dose not given here
# [15] = system: Escherichia coli; experiment: Antibacterial activity against Escherichia coli BL21(DE3) measured after 20 hrs by microdilution method; type: functional
# [16] = system: Klebsiella aerogenes; experiment: Antibacterial activity against Enterobacter aerogenes assessed as diameter of inhibition zone measured after 24 hrs by agar disc diffusion method; type: functional; also: test concentration or dose not given here
# [17] = Inhibition of Escherichia coli LpxC C63A mutant using UDP-3-O-[(R)-3-hydroxymyristoyl]-N-acetylglucosamine as substrate measured after 30 mins by fluorescence based microplate assay
SMILES,diameter of the inhibition zone (DIZ) [1] [mm],diameter of the inhibition zone (DIZ) [2] [mm],IC50 [3] [nM],IC50 [4] [nM],diameter of the inhibition zone (DIZ) [5] [mm],MIC [6] [µM],IC50 [7] [nM],diameter of the inhibition zone (DIZ) [8] [mm],diameter of the inhibition zone (DIZ) [9] [mm],diameter of the inhibition zone (DIZ) [10] [mm],diameter of the inhibition zone (DIZ) [11] [mm],diameter of the inhibition zone (DIZ) [12] [mm],IC50 [13] [nM],diameter of the inhibition zone (DIZ) [14] [mm],MIC [15] [µM],diameter of the inhibition zone (DIZ) [16] [mm],IC50 [17] [nM],Ki [17] [nM]
O=C(NO)[C@@H]1CCCN1Cc1ccc(C#Cc2ccc(CN3CCOCC3)cc2)cc1,20,12,5000,939,15,4,3000,25,18,20,<6,16,> 10000,13,128,18,10500,1400
CCCCCc1ccc(C#Cc2ccc(C(=O)N3C[C@@H](O)C[C@H]3C(=O)NO)cc2)cc1,<6,8,15,0.7,<6,> 128,3,8,7,<6,<6,7,120,7,> 256,<6,> 200000,> 27600
O=C(NO)[C@@H]1C[C@@H](O)CN1Cc1ccc(C#Cc2ccc(CN3CCOCC3)cc2)cc1,<6,<6,> 10000,> 10000,12.3,8,> 10000,21,<6,7,<6,<6,> 10000,<6,> 256,<6,62100,8600
CCCCCc1ccc(C#Cc2ccc(C(=O)N3C[C@H](O)C[C@H]3C(=O)NO)cc2)cc1,8,9,282,11,<6,16,151,8,<6,<6,<6,9,845,7,> 256,<6,5900,810
O=C(NO)[C@@H]1C[C@H](O)CN1C(=O)c1ccc(C#Cc2ccc(OCCCCCF)cc2)cc1,,,21,0.07,<6,> 256,5,<6,,,,,108,,> 256,,,
CC1(C)O[C@@H]2[C@@H](CN(C(=O)c3ccc(C#Cc4ccc(CN5CCOCC5)cc4)cc3)[C@H]2C(=O)NO)O1,<6,<6,,> 10000,9,256,3000,10,8,8,<6,11,> 10000,8,> 256,8,> 200000,> 27600
O=C(NO)[C@@H]1C[C@@H](O)CN1C(=O)c1ccc(C#Cc2ccc(CN3CCOCC3)cc2)cc1,<6,<6,2000,1000,7.5,16,1000,20.7,9,9,<6,10,9000,<6,> 256,16,47900,6600
O=C(NO)[C@@H]1C[C@H](O)CN1C(=O)c1ccc(C#Cc2ccc(CN3CCOCC3)cc2)cc1,8,9,198,57,11.3,16,55,19.5,11,10,<6,12,1000,8,> 256,15,29500,4100
O=C(NO)[C@H]1CCCN1C(=O)c1ccc(C#Cc2ccc(CN3CCOCC3)cc2)cc1,9,<6,50,636,11.3,8,503,24.7,9,11,<6,12,731,8,> 256,9,63400,8700

# Reference: ChEMBL document CHEMBL4392848, “Proline-based hydroxamates targeting the zinc-dependent deacetylase LpxC: Synthesis, antibacterial properties, and docking studies” (Bioorg Med Chem, 2019)
